Source: patent US12365686B2, “Compound as porcupine inhibitor and use thereof” (JIANGSU KANION PHARMACEUTICAL CO., LTD., priority 2019, dated 2025)
Counter-ions that a name gives are not always drawn.

Columns and labels:
Capan-2 cells = experiment: Anti-proliferative activity on Capan-2 cells; assay type: cell-based; conditions: Homo sapiens, Capan-2, 120 h; 5 days, CellTiter-Glo
Protocol: 2. Assay of Anti-Proliferative Activity on Capan-2 Cells
Capan-2 cells were planted in a white 96-well plate with 80 μL of cell suspension per well, which contained 5000 Capan-2 cells. The cell plate was placed in a carbon dioxide incubator for culture overnight.
The assay compound was serially diluted 3-fold with a discharge gun to the 9th concentration, that is, from 200 μM to 30 nM, in duplicate. 78 μL of medium was added to the middle plate, and then 2 μL of the serially diluted compound was transferred to each well of the middle plate according to the corresponding position. After mixing, 20 μL of the mixture was transferred to each well of the cell plate. The cell plate was incubated in a carbon dioxide incubator for 5 days. Another cell plate was prepared, and read on the day of drug addition. The signal value was used as the maximum value (The value of Max in the equation below) in data analysis. 25 μL of chemiluminescence detection reagent for cell viability was added to each well of this cell plate, and this cell plate was incubated at room temperature for 10 minutes to stabilize the luminescence signal. A multi-label analyzer was used to read results.
After the cell plate was cultured for 5 days, 25 μL of Promega CellTiter-Glo reagent was added to each well of the cell plate. The cell plate was incubated at room temperature for 10 minutes to stabilize the luminescence signal. A multi-label analyzer was used to read results.
The value of IC50 can be obtained by curve fitting. Table 2 provides the inhibitory activity of the compounds of the present disclosure on Capan-2 cell proliferation.

[1] = system: STF reporter gene for WNT pathway (Porcupine of the Wnt signaling pathway); experiment: Inhibitory activity on Super-Top-Flash (STF) reporter gene; assay type: cell-based; conditions: HEK293 STF and L wnt3A cells 1:1, 24 hours, Bright-Glo
Protocol: 1. Assay of Inhibitory Activity on Super-Top-Flash (STF) Reporter Gene
HEK293 STF and L wnt3A cells were planted at a ratio of 1:1 in a white 96-well plate with 80 μL of cell suspension per well, which contained 20,000 HEK293 STF cells and 20,000 L wnt3A cells. The cell plate was placed in a carbon dioxide incubator for culture overnight.
The assay compound was serially diluted 5-fold with a discharge gun to the 8th concentration, that is, from 400 μM to 5.12 nM, in duplicate. 78 μL of medium was added to the middle plate, and then 2 μL of the serially diluted compound was transferred to each well of the middle plate according to the corresponding position. After mixing, 20 μL of the mixture was transferred to each well of the cell plate. The cell plate was placed in a carbon dioxide incubator for 24 hours.
100 μL of Promega Bright-Glo reagent was added to each well of the cell plate, and the cell plate was incubated at room temperature for 10 minutes to stabilize the luminescence signal. A multi-label analyzer was used to read results.
The original data of the multi-label analyzer was used for calculation, and the value of IC50 can be obtained by curve fitting. Table 1 provides data of the inhibitory activity of the compounds of the present disclosure on the Wnt signaling pathway.

[2] = Pharmacokinetic evaluation of compounds in mice; assay type: in vivo; conditions: mouse, plasma, male CD-1 mice; for clearance / bioavailability / half-life / Vd: IV 0.5 mg/kg; for bioavailability / AUC(0-t): PO 2.5 mg/kg; for half-life: read-out: T1/2 IV (converted); for Vd: read-out: Vdss; for AUC(0-t): read-out: AUC0-last PO; for Cmax: single dose, route not stated (IV 0.5 mg/kg, PO 2.5 mg/kg)
Protocol: Assay 4: Pharmacokinetic Evaluation of Compounds
Assay purpose: Pharmacokinetics of compounds in […] mice was assayed.
CD-1 mice (male, 7-9 weeks old, Shanghai Slack)
The pharmacokinetic characteristics of rodents after intravenous (IV) and oral (PO) administration of compounds were assayed by standard protocols. In the assay, mice were given a single intravenous injection and oral administration. The vehicle for intravenous injection was water. The oral vehicle was 0.5% hypromellose. Four male CD-1 mice were used in this project. Two mice were administered intravenously at a dose of 0.5 mg/kg, and plasma samples were collected at 0 h (before administration) and 0.083, 0.25, 0.5, 1, 2, 4, 8, and 24 h after administration. The other two mice were orally administered by gavage at a dose of 2.5 mg/kg, and plasma samples were collected at 0 h (before administration) and 0.25, 0.5, 1, 2, 4, 8, and 24 h after administration. Whole blood samples within 24 hours were collected, and centrifuged at 3000 g for 15 minutes. The supernatant was separated to obtain a plasma sample, and protein was precipitated by adding 4 times volume of acetonitrile solution containing internal standard. The mixture was centrifuged to obtain a supernatant, and an equal volume of water was added to the obtained supernatant. The mixture was then centrifuged to obtain a supernatant for injection. The blood drug concentration was quantitatively analyzed by LC-MS/MS analysis method, and pharmacokinetic parameters were calculated, such as peak concentration (Cmax), clearance rate (CL), half-life (T1/2), […] (Vdss), area under the drug-time curve (AUC0-last), and bioavailability (F), etc.
The assay results are shown in Table 4: The compounds of the present disclosure have good pharmacokinetic properties.

[3] = system: human pancreatic cancer Capan-2 xenograft tumor; experiment: In vivo drug efficacy on Capan-2 transplanted tumor in nude mice; conditions: BID, Capan-2 Xenograft model
Protocol: 3. Assay of In Vivo Drug Efficacy on Capan-2 Transplanted Tumor in Nude Mice
Capan-2 cells were cultured in McCoy's 5A medium, containing 10% fetal bovine serum FBS, in a 37° C. incubator with 5% CO2. Tumor cells were collected after passaging and growing to a suitable concentration and during the logarithmic growth phase. The cells resuspended in McCoy's 5A medium were counted and the cell suspension was adjusted to a concentration of 2×10^7/mL for inoculation.
Establishment of human pancreatic cancer Capan-2 xenograft tumor. Cells were collected and the concentration was adjusted to 2×10^7 (resuspend with McCoy's 5A medium to a cell suspension containing 50% Martigel). Under aseptic conditions, 0.1 mL of tumor cells was injected subcutaneously into the right back of the mouse, and the number of cells inoculated per mouse was 2×10^6. After the tumor was grown to a certain size, digital vernier calipers was used to measure the length (a) and width (b) of the tumor, and the tumor volume was calculated. The calculation formula of tumor volume (TV) was: TV=a×b^2/2.
Capan-2 tumor cells were inoculated. When the tumor was grown to about 150 cubic millimeters, mice were divided into groups with 6 mice in each group. The day of grouping was regarded as day 0, and the drug was administered on the day of grouping. During the assay, the animal's body weight and tumor size were measured twice a week, and the animal's clinical symptoms were observed and recorded every day. For each administration, the most recently weighed animal body weight was referred to.
The evaluation index of anti-tumor activity is relative tumor proliferation rate T/C (%), wherein T/C (%)>40% means ineffective, and T/C (%)<40% and statistically P<0.05 means effective. The calculation formula of T/C (%) is: T/C (%)=(TRTV/CRTV)×100%. TRTV is relative tumor volume of the treatment group, and CRTV is relative tumor volume of the negative control group. TGI (%)^b tumor inhibition rate=(average tumor volume or weight of negative control group-average tumor volume or weight of administration group)/average tumor volume or weight of negative control group×100%. TGI (%)^a=[(1−(average tumor volume of a certain administration group at the time of measurement-average tumor volume of the administration group at the beginning of the administration))/(average tumor volume of vehicle control group at the time of measurement-average tumor volume of the vehicle control group at the beginning of the administration)]×100%.

| SMILES | IC50 (Capan-2 cells) [nM] | IC50 [1] [nM] | clearance [2] [mL/min/kg] | bioavailability [2] [%] | half-life [2] [h] | Vd [2] [L/kg] | AUC(0-t) [2] [µM·h] | Cmax [2] [nM] | T/C % ([3]; 5 mg/Kg, 31 days) [%] | TGI % ([3]; 5 mg/Kg, 31 days) [%] | T/C % ([3]; 2.5 mg/Kg) [%] | TGI % ([3]; 2.5 mg/Kg) [%] |
| --- | --- | --- | --- | --- | --- | --- | --- | --- | --- | --- | --- | --- |
| Cc1cc(-c2ncc(CNc3nccn4c(-c5ccccc5)cnc34)cc2C)ccn1 [Compound 1] | 0.71 | 0.12 | 5.05 | 76.3 | 2.23 | 0.633 | 16.5 | 3030 | 21.58 | 96.7 | – | – |
| Cc1cc(-c2ncc(CNc3nccn4c(-c5cc(F)cc(F)c5)cnc34)cc2C)ccn1 [Compound 30 (hydrochloride)] | 0.71 | 0.52 | 5.75 | 98.8 | 2.5 | 0.666 | 16.2 | 2580 | 25.31 | 84.93 | 40.18 | 66.67 |
